*1 amine or outer side, *2 acyl side, *3 side chain or, on linkers, in order; H or OH if unused. Where a SMILES comes first, the peptide text is derived from it. Bridges are numbered along the chain shown (N, C = ends). [ ]: non-standard residue; d: D form. TATA = O=C(CC[*:1])N1CN(C(=O)CC[*:2])CN(C(=O)CC[*:3])C1; Nle = CCCC[C@H](N)C(=O)O; Nva = CCC[C@H](N)C(=O)O Bounds are passed on as bounds.

For the test, the target named is T1, Coagulation factor XII (Homo sapiens, UniProt P00748).
T1 sequence (P00748 whole entry): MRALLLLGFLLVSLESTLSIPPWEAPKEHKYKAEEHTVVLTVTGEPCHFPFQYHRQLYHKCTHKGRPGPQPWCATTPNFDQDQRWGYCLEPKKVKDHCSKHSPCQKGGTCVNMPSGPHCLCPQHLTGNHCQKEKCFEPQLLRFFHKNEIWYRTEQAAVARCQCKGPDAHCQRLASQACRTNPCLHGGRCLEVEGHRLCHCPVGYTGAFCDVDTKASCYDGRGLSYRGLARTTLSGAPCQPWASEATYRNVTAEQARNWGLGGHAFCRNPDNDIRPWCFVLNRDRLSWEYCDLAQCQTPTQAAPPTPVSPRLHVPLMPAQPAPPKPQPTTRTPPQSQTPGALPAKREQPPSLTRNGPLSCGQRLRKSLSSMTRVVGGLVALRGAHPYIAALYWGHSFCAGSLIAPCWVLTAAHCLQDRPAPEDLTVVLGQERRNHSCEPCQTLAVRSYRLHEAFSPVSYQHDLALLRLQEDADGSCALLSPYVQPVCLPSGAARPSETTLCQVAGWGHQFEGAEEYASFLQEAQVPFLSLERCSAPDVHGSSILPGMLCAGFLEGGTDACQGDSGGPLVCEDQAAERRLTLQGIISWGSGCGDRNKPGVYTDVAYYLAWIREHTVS
The test can be described thus: Inhibition of human beta factor 12a using fluorogenic substrate Boc-Gln-Gly-Arg-AMC preincubated for 10 mins followed by addition of substrate measured every min for 30 mins.
The molecule `CC(C)C[C@@H]1NC(=O)[C@H](CCCNC(=N)N)NC(=O)[C@H](Cc2ccccc2)NC(=O)[C@@H](NC(=O)[C@@H](N)CCCNC(=N)N)CSCCC(=O)N2CN3CN(C2)C(=O)CCSC[C@@H](C(=O)N[C@@H](CCCNC(=N)N)C(=O)N[C@@H](Cc2c[nH]c4ccccc24)C(=O)O)NC(=O)[C@H](CCCNC(=N)N)NC(=O)[C@H](CC(C)C)NC(=O)[C@H](CCC(N)=O)NC(=O)[C@H](CCCNC(=N)N)NC(=O)[C@H](CSCCC3=O)NC(=O)[C@H](C)NC1=O` (H-RCFRLACRQLRCRW-OH; linker 2-7-12 via TATA) gave a Ki of 19.6 nM. With `CC(C)C[C@@H]1NC(=O)[C@H](CCC(N)=O)NC(=O)[C@H](CCCNC(=N)N)NC(=O)[C@@H]2CSCCC(=O)N3CN(CN(C3)C(=O)CCSC[C@@H](C(=O)N[C@@H](CCCNC(=N)N)C(=O)O)NC(=O)[C@H](CCCNC(=N)N)NC1=O)C(=O)CCSC[C@H](NC(=O)[C@H](N)CCCNC(=N)N)C(=O)N[C@@H](Cc1ccccc1)C(=O)N[C@@H](CCCNC(=N)N)C(=O)N[C@@H](CC(C)C)C(=O)N1CCC[C@H]1C(=O)N2` the figure was 34.4 nM; with `CC(C)C[C@@H]1NC(=O)[C@H](CCC(N)=O)NC(=O)[C@H](CCCNC(=N)N)NC(=O)[C@@H]2CSCCC(=O)N3CN(CN(C3)C(=O)CCSC[C@H](NC(=O)[C@@H](N)CCCNC(=N)N)C(=O)N[C@@H](Cc3c[nH]c4ccc(O)cc34)C(=O)N[C@@H](CCCNC(=N)N)C(=O)N[C@@H](CC(C)C)C(=O)N3CCC[C@H]3C(=O)N2)C(=O)CCSC[C@@H](C(=O)N[C@@H](CCCNC(=N)N)C(=O)N[C@@H](Cc2c[nH]c3ccccc23)C(=O)O)NC(=O)[C@H](CCCNC(=N)N)NC1=O`, 94 nM.

In the case of `CCCC[C@@H]1NC(=O)[C@H](CCCNC(=N)N)NC(=O)[C@H](Cc2ccccc2)NC(=O)[C@@H](NC(=O)[C@@H](N)CCCNC(=N)N)CSCCC(=O)N2CN3CN(C2)C(=O)CCSC[C@H](NC(=O)[C@@H]2CCCN2C1=O)C(=O)N[C@@H](CCCNC(=N)N)C(=O)N[C@@H](CCC(N)=O)C(=O)N[C@@H](CC(C)C)C(=O)N[C@@H](CCCNC(=N)N)C(=O)N[C@H](C(=O)N[C@@H](CCCNC(=N)N)C(=O)N[C@@H](Cc1c[nH]c2ccccc12)C(=O)O)CSCCC3=O` (H-RCFR[Nle]PCRQLRCRW-OH; linker 2-7-12 via TATA), the Ki is above 3000 nM.

The molecule `CC(C)C[C@@H]1NC(=O)[C@H](CCC(N)=O)NC(=O)[C@H](CCCNC(=N)N)NC(=O)[C@@H]2CSCCC(=O)N3CN(CN(C3)C(=O)CCSC[C@H](NC(=O)[C@@H](N)CCCNC(=N)N)C(=O)N[C@@H](Cc3ccc(I)cc3)C(=O)N[C@@H](CCCNC(=N)N)C(=O)N[C@@H](CC(C)C)C(=O)N3CCC[C@H]3C(=O)N2)C(=O)CCSC[C@@H](C(=O)N[C@@H](CCCNC(=N)N)C(=O)N[C@@H](Cc2c[nH]c3ccccc23)C(=O)O)NC(=O)[C@H](CCCNC(=N)N)NC1=O` displayed a Ki of 92 nM. The same measure for `CSCC[C@@H]1NC(=O)[C@H](CCCNC(=N)N)NC(=O)[C@H](Cc2ccccc2)NC(=O)[C@@H](NC(=O)[C@@H](N)CCCNC(=N)N)CSCCC(=O)N2CN3CN(C2)C(=O)CCSC[C@H](NC(=O)[C@@H]2CCCN2C1=O)C(=O)N[C@@H](CCCNC(=N)N)C(=O)N[C@@H](CCC(N)=O)C(=O)N[C@@H](CC(C)C)C(=O)N[C@@H](CCCNC(=N)N)C(=O)N[C@H](C(=O)N[C@@H](CCCNC(=N)N)C(=O)N[C@@H](Cc1c[nH]c2ccccc12)C(=O)O)CSCCC3=O` (H-RCFRMPCRQLRCRW-OH; linker 2-7-12 via TATA): above 3000 nM. The same measure for `CC(C)C[C@@H]1NC(=O)[C@H](CCC(N)=O)NC(=O)[C@H](CCCNC(=N)N)NC(=O)[C@@H]2CSCCC(=O)N3CN(CN(C3)C(=O)CCSC[C@H](NC(=O)[C@@H](N)CCCCN)C(=O)N[C@@H](Cc3ccccc3)C(=O)N[C@@H](CCCNC(=N)N)C(=O)N[C@@H](CC(C)C)C(=O)N3CCC[C@H]3C(=O)N2)C(=O)CCSC[C@@H](C(=O)N[C@@H](CCCNC(=N)N)C(=O)O)NC(=O)[C@H](CCCNC(=N)N)NC1=O` (H-KCFRLPCRQLRCR-OH; linker 2-7-12 via TATA): 9 nM; for `CCC[C@@H]1NC(=O)[C@H](CCC(N)=O)NC(=O)[C@H](CCCNC(=N)N)NC(=O)[C@@H]2CSCCC(=O)N3CN(CN(C3)C(=O)CCSC[C@H](NC(=O)[C@@H](N)CCCNC(=N)N)C(=O)N[C@@H](Cc3ccccc3)C(=O)N[C@@H](CCCNC(=N)N)C(=O)N[C@@H](CC(C)C)C(=O)N3CCC[C@H]3C(=O)N2)C(=O)CCSC[C@@H](C(=O)N[C@@H](CCCNC(=N)N)C(=O)N[C@@H](Cc2c[nH]c3ccccc23)C(=O)O)NC(=O)[C@H](CCCNC(=N)N)NC1=O`: 72 nM; for `CC(C)C[C@@H]1NC(=O)[C@H](CCC(N)=O)NC(=O)[C@H](CCCNC(=N)N)NC(=O)[C@@H]2CSCCC(=O)N3CN(CN(C3)C(=O)CCSC[C@H](NC(=O)[C@@H](N)CCCNC(=N)N)C(=O)N[C@@H](Cc3ccc([N+](=O)[O-])cc3)C(=O)N[C@@H](CCCNC(=N)N)C(=O)N[C@@H](CC(C)C)C(=O)N3CCC[C@H]3C(=O)N2)C(=O)CCSC[C@@H](C(=O)N[C@@H](CCCNC(=N)N)C(=O)N[C@@H](Cc2c[nH]c3ccccc23)C(=O)O)NC(=O)[C@H](CCCNC(=N)N)NC1=O`: 1.64 nM. In turn, `CC(C)C[C@@H]1NC(=O)[C@H](CCC(N)=O)NC(=O)[C@H](CCCNC(=N)N)NC(=O)[C@@H]2CSCCC(=O)N3CN(CN(C3)C(=O)CCSC[C@H](NC(=O)[C@@H](N)CCCNC(=N)N)C(=O)N[C@@H](C)C(=O)N[C@@H](CCCNC(=N)N)C(=O)N[C@@H](CC(C)C)C(=O)N3CCC[C@H]3C(=O)N2)C(=O)CCSC[C@@H](C(=O)N[C@@H](CCCNC(=N)N)C(=O)N[C@@H](Cc2c[nH]c3ccccc23)C(=O)O)NC(=O)[C@H](CCCNC(=N)N)NC1=O` (H-RCARLPCRQLRCRW-OH; linker 2-7-12 via TATA) showed a Ki of 132 nM. Consider `CC(C)C[C@@H]1NC(=O)[C@H](CCC(N)=O)NC(=O)[C@H](CCCNC(=N)N)NC(=O)[C@@H]2CSCCC(=O)N3CN(CN(C3)C(=O)CCSC[C@H](NC(=O)[C@@H](N)CCCNC(=N)N)C(=O)N3CCC[C@H]3C(=O)N[C@@H](CCCNC(=N)N)C(=O)N[C@@H](CC(C)C)C(=O)N3CCC[C@H]3C(=O)N2)C(=O)CCSC[C@@H](C(=O)N[C@@H](CCCNC(=N)N)C(=O)N[C@@H](Cc2c[nH]c3ccccc23)C(=O)O)NC(=O)[C@H](CCCNC(=N)N)NC1=O`, for which the affinity, expressed as Ki, was 36.9 nM. With `CC(C)C[C@@H]1NC(=O)[C@H](CCCNC(=N)N)NC(=O)[C@H](Cc2ccccc2)NC(=O)[C@@H](NC(=O)[C@@H](N)CCCNC(=N)N)CSCCC(=O)N2CN3CN(C2)C(=O)CCSC[C@H](NC(=O)[C@@H]2CCCN2C1=O)C(=O)N[C@@H](CCCNC(=N)N)C(=O)N[C@@H](CCC(N)=O)C(=O)N[C@@H](CC(C)(C)C)C(=O)N[C@@H](CCCNC(=N)N)C(=O)N[C@H](C(=O)N[C@@H](CCCNC(=N)N)C(=O)N[C@@H](Cc1c[nH]c2ccccc12)C(=O)O)CSCCC3=O` the figure was 17.7 nM; with `CC(C)C[C@@H]1NC(=O)[C@H](CCC(N)=O)NC(=O)[C@H](CCCNC(=N)N)NC(=O)[C@@H]2CSCCC(=O)N3CN(CN(C3)C(=O)CCSC[C@H](NC(=O)[C@@H](N)CCCNC(=N)N)C(=O)N[C@@H](Cc3csc4ccccc34)C(=O)N[C@@H](CCCNC(=N)N)C(=O)N[C@@H](CC(C)C)C(=O)N3CCC[C@H]3C(=O)N2)C(=O)CCSC[C@@H](C(=O)N[C@@H](CCCNC(=N)N)C(=O)N[C@@H](Cc2c[nH]c3ccccc23)C(=O)O)NC(=O)[C@H](CCCNC(=N)N)NC1=O`, 6.8 nM; with `CCC[C@@H]1NC(=O)[C@H](CCCNC(=N)N)NC(=O)[C@H](Cc2ccccc2)NC(=O)[C@@H](NC(=O)[C@@H](N)CCCNC(=N)N)CSCCC(=O)N2CN3CN(C2)C(=O)CCSC[C@H](NC(=O)[C@@H]2CCCN2C1=O)C(=O)N[C@@H](CCCNC(=N)N)C(=O)N[C@@H](CCC(N)=O)C(=O)N[C@@H](CC(C)C)C(=O)N[C@@H](CCCNC(=N)N)C(=O)N[C@H](C(=O)N[C@@H](CCCNC(=N)N)C(=O)N[C@@H](Cc1c[nH]c2ccccc12)C(=O)O)CSCCC3=O` (H-RCFR[Nva]PCRQLRCRW-OH; linker 2-7-12 via TATA), 220 nM.

Consider `CC(C)C[C@@H]1NC(=O)[C@H](CCC(N)=O)NC(=O)[C@H](CCCNC(=N)N)NC(=O)[C@@H]2CSCCC(=O)N3CN(CN(C3)C(=O)CCSC[C@H](NC(=O)[C@@H](N)CCCNC(=N)N)C(=O)N[C@@H](Cc3c[nH]c4ccccc34)C(=O)N[C@@H](CCCNC(=N)N)C(=O)N[C@@H](CC(C)C)C(=O)N3CCC[C@H]3C(=O)N2)C(=O)CCSC[C@@H](C(=O)N[C@@H](CCCNC(=N)N)C(=O)N[C@@H](Cc2c[nH]c3ccccc23)C(=O)O)NC(=O)[C@H](CCCNC(=N)N)NC1=O` (H-RCWRLPCRQLRCRW-OH; linker 2-7-12 via TATA), for which the Ki worked out at 12 nM.

The molecule `CC(C)C[C@@H]1NC(=O)[C@H](CCC(N)=O)NC(=O)[C@H](CCCNC(=N)N)NC(=O)[C@@H]2CSCCC(=O)N3CN(CN(C3)C(=O)CCSC[C@H](NC(=O)[C@@H](N)CCCNC(=N)N)C(=O)N[C@@H](Cc3ccccc3)C(=O)N[C@@H](CCCNC(=N)N)C(=O)N[C@@H](CC(C)C)C(=O)N3CCC[C@H]3C(=O)N2)C(=O)CCSC[C@@H](C(=O)O)NC(=O)[C@H](CCCNC(=N)N)NC1=O` (H-RCFRLPCRQLRC-OH; linker 2-7-12 via TATA) displayed a Ki of 9.3 nM.

(Values after ChEMBL document CHEMBL3992518, “Peptide Macrocycle Inhibitor of Coagulation Factor XII with Subnanomolar Affinity and High Target Selectivity” (J Med Chem, 2017).)
